Test results: patent US20100249175A1, “Dicationic compounds which selectively recognize G-quadruplex DNA” (priority 2005, published 2010)
Counter-ions that a name gives are not always drawn. Like-named read-outs stand apart in the source and are kept apart here.

Tests used:
[1] = test system: telomeric G-quadruplex DNA sequence d[AG3(T2AG3)3] (SEQ ID NO: 1); experiment: CD titration of compounds into human telomeric G-quadruplex DNA (induced CD); type: binding; design: key to Induced CD (no exciton): ++: Relative strength of the induced CD is indicated by the number of (+) marks; +++: Relative strength of the induced CD is indicated by the number of (+) marks; ++++: Relative strength of the induced CD is indicated by the number of (+) marks; settings: for Induced CD (no exciton) / Induced CD (exciton): G-Quadruplex Affinity
Excerpt: The oligonucleotides d[AG3(T2AG3)3] (SEQ ID NO: 1), d[AG3TG4AG3TG4A] (SEQ ID NO: 2), d[G4(T4G4)3] (SEQ ID NO: 3), d[(T2G4)4] (SEQ ID NO: 4), d[(GC)7] (SEQ ID NO: 5), d[[…]] (SEQ ID NO: 6), d[G2T2G2TGTG2T2G2] (SEQ ID NO: 7), d[[…]] (SEQ ID NO: 8), d[[…]] (SEQ ID NO: 9), d[[…]] (SEQ ID NO: 10), d[[…]] (SEQ ID NO: 11), d[TTAGGGT] (SEQ ID NO: 12), and d[TGGGGT] (SEQ ID NO: 13) were purchased with HPLC purification from Midland Certified Reagent Company (The Midland Certified Reagent Company, Inc., Midland, Tex., USA). The concentration of each DNA sample was determined spectrophotometrically at 260 nm using the nearest neighbor extinction coefficient.
Stock solutions of individual dicationic polyaryl compounds were prepared in double distilled water and diluted to working concentrations immediately before use with buffer. All measurements were performed at 20° C. in a 10 mM HEPES buffer (pH 7.4) containing 3 mM EDTA and 50 mM KCl, NaCl, or LiCl. Absorbance spectra were obtained on a Varian Cary 300 BIO UV-visible spectrophotometer (Varian, Inc., Palo Alto, Calif., United States of America) in a quartz cell with a 1 cm pathlength. CD spectra were recorded using a Jasco J-810 spectrapolarimeter (Jasco, Inc., Easton, Md., United States of America) in a 1-cm cell using an instrument scanning speed of 50 nm/min with a response time of 1 s. The spectra were averaged over four scans. A buffer baseline scan was collected in the same cuvette and subtracted from the average scan for each sample. Appropriate amounts of dicationic compound stock solution or DNA were added sequentially to increase the molar ratio.
When an achiral ligand binds tightly to a chiral host, such as DNA, a CD signal is induced in the wavelength region corresponding to the absorbance of the ligand. […] An additional negative band centered at 395 nm overlaps with the higher energy exciton band. […] Restriction of the rotational and translational freedom of the two molecules of the dimer relative to each other will cause an increase in the rotational strength of the induced CD band, resulting in a large ellipticity. See Allenmark, S., Chirality, 15, 409-422 (2003).
Some compounds appeared to bind to the telomeric G-quadruplex DNA sequence d[AG3(T2AG3)3] […] Relative strength of the induced CD is indicated by the number of (+) marks.

[2] = test system: Trypanosoma brucei rhodesiense (T. b. r.); experiment: In vitro antiprotozoal activity against T. b. r.; type: cell-based
Description: (§1) In vitro antiprotozoal activities were measured following established protocols. […] E., et al., Bioorg.

[3] = test system: Plasmodium falciparum (P. f.); experiment: In vitro antiprotozoal activity against P. f.; type: cell-based; settings: read-out: P.f. (IC50)
Description: as §1

[4] = test system: STIB 900 strain of Trypanosoma brucei rhodesiense (T. b. r.); experiment: In vivo T. b. r. STIB 900 mouse model; settings: for In Vivo T.b.r. cures: mice cured / mice infected, days 3-6 post-infection; for In Vivo T.b.r. survival time: observation up to day 60
Description: Groups of four mice were infected intraperitoneally with 2×10^5 bloodstream forms of T. b. r. STIB 900 which originates from a patient in Tanzania. On days 3, 4, 5, and 6 post-infection the experimental groups were treated with the drugs either by the intraperitoneal or for prodrugs by the oral route. Usually the highest tolerated dose was used which was determined in a pretoxicological experiment. Parasitemia of the mice was checked daily up to day 14 post-infection and thereafter 2 times per week up to day 60. One group of mice was not treated and acted as control. For relapsing mice, the day of death was recorded and the survival time determined.

SMILES | melting point | Induced CD (no exciton) [1] | IC50 [2] | IC50 ([3]; in vitro) | other results
N=C(N)c1ccnc(-c2ccc(-c3ccc(-c4cc(C(=N)N)ccn4)s3)s2)c1 [Compound 26b, 5,5′-Bis-(4-amidino-2-pyridyl)-2,2′-bithiophene] | > 300 °C | – | – | – | –
N=C(N)c1ccc(-c2ccc(-c3nc4ccc(C(=N)N)cc4[nH]3)o2)cc1 [Compound 47] | – | +++ | 122 nM | 96 nM | In Vivo T.b.r. cures ([4]; 20 mg/kg ip): 1/4; In Vivo T.b.r. survival time ([4]; 20 mg/kg ip): > 27.75 days
N=C(N)c1ccc2nc(-c3ccc(-c4ccc(C(=N)N)c(F)c4)o3)[nH]c2c1 [Compound 52] | – | +++ | 52.5 nM | 31 nM | In Vivo T.b.r. cures ([4]; 20 mg/kg ip): 2/4; In Vivo T.b.r. survival time ([4]; 20 mg/kg ip): > 52 days
CC1=CC(C(=N)N)=CN2C=C(c3ccc(-c4ccc(C(=N)N)cc4)o3)NC12 (centres unmarked) [Compound 53] | – | +++ | 9 nM | 88 nM | In Vivo T.b.r. cures ([4]; 5 mg/kg ip): 4/4; In Vivo T.b.r. survival time ([4]; 5 mg/kg ip): > 60 days
N=C(N)c1ccc(-c2ccc(-c3ccc(-c4ccc(C(=N)N)cc4)[se]3)[se]2)cc1 | > 300 °C | – | – | – | –
N=C(N)c1ccc(-c2ccc(-c3ccc(-c4ccc(C(=N)N)cn4)o3)o2)nc1 [Compound 22, 5,5′-Bis-(5-amidino-2-pyridyl)-2,2′-bifuran] | > 300 °C | – | – | – | –
c1cc(-c2ccc(-c3nc4ccc(C5=NCCN5)cc4[nH]3)o2)ccc1C1=NCCN1 [Compound 48] | – | ++++ | – | – | –
N=C(N)c1ccnc(-c2ccc(-c3ccc(-c4cc(C(=N)N)ccn4)[se]3)[se]2)c1 | > 300 °C | – | – | – | –
N=C(N)c1ccc2nc(-c3ccc(-c4ccc(C(=N)N)o4)o3)[nH]c2c1 [Compound 45] | – | ++ | 102 nM | 92 nM | –
N=C(N)c1ccc(-c2ccc(-c3ccc(C(=N)N)o3)cc2)cc1 [Compound 51] | – | – | 5 nM | 1 nM | exciton splitting in CD spectra (in words) [1]: induced exciton splitting; Induced CD (exciton) [1]: +
c1ccc2[nH]c(-c3ccc(-c4ccc(C5=NCCN5)cc4)o3)nc2c1 [Compound 50] | – | +++ | – | – | –
COc1ccc(-c2nc3ccc(-c4nc5ccc(C(=N)N)cc5[nH]4)cc3[nH]2)cc1 [Compound 46] | – | ++++ | 16 nM | 29 nM | In Vivo T.b.r. cures ([4]; 5 mg/kg ip): 0/4; In Vivo T.b.r. survival time ([4]; 5 mg/kg ip): 14.75 days
N=C(N)c1ccc(-c2ccc(-c3ccc(-c4ccc(C(=N)N)cc4)o3)o2)cc1 [Compound 17, 5,5′-bis-(4-Amidinophenyl)-2,2′-bifuran hydrochloride salt] | – | – | – | – | exciton splitting in CD spectra (in words) [1]: induced exciton splitting; Induced CD (exciton) [1]: ++++; IC50 [3]: 20 nM; In Vivo T.b.r. cures ([4]; 10 mg/kg ip): 0/4; In Vivo T.b.r. survival time ([4]; 10 mg/kg ip): 22 days
N=C(N)c1ccc(-c2ccc(-c3ccc(-c4ccc(C(=N)N)cc4)s3)s2)cc1 [Compound 26a, 5,5′-Bis-(4-amidinophenyl)-2,2′-bithiophene] | > 300 °C | – | – | – | –
N=C(N)c1ccc(-c2ccc(-c3ccc(C(=N)N)cc3)o2)cc1 [furamidine, reference compound] | – | – | – | – | In Vivo T.b.r. survival time ([4]; 5 mg/kg ip): 46.5 days
c1cc(-c2ccc(-c3ccc(C4=NCCN4)o3)o2)oc1C1=NCCN1 [Compound 49] | – | – | 793 nM | 93 nM | exciton splitting in CD spectra (in words) [1]: induced exciton splitting; Induced CD (exciton) [1]: ++
